Consider 2 compounds from ChEMBL document CHEMBL1156378, “A new dimeric stilbene with tyrosinase inhibitiory activity from Artocarpus gomezianus” (J Nat Prod, 2001).

In the test the target is T1, Tyrosinase (Agaricus bisporus, UniProt O42713).
T1 sequence (O42713 whole entry): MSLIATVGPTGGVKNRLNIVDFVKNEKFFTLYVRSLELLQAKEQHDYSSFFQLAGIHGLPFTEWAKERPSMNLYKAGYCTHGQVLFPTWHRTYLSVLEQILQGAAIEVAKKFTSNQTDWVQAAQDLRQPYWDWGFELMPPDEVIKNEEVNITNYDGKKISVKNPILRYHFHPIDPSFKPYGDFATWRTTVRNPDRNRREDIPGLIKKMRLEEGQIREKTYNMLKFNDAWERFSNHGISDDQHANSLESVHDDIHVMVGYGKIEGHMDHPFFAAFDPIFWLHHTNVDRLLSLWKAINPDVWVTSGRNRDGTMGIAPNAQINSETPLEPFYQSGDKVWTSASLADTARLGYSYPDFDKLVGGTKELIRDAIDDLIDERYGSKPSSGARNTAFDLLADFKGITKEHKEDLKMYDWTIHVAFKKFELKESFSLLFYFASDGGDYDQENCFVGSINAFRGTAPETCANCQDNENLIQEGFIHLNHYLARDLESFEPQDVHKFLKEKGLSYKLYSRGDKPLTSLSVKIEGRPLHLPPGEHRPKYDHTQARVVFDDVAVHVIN

pIC50: −log10 of the molar value.

Description: Inhibition of mushroom tyrosinase

Take `Oc1cc(O)cc(CC(c2ccc(O)cc2O)c2c(O)cc(/C=C/c3ccc(O)cc3O)cc2O)c1` (configuration not stated) [ANDALASIN A]: the negative logarithm of the IC50 (pIC50) was 4.41.

In turn, `Oc1cc(O)cc(/C=C/c2cc(C(Cc3cc(O)cc(O)c3)c3ccc(O)cc3O)c(O)cc2O)c1` (configuration not stated) [ARTOGOMEZIANOL] showed a negative logarithm of the IC50 (pIC50) of 4.17.

In general, pIC50 refers to the IC50 on a negative log10 scale, so that one unit is a factor of ten. A higher pIC50 goes with a low IC50.
